Data taken from ChEMBL document CHEMBL1126791, “Synthesis and antibacterial activity of a new series of tetracyclic pyridone carboxylic acids” (J Med Chem, 1993).
Converted amounts (≈) assume the structure as drawn.

Experiments:
Staphylococcus aureus [1] = assay: In vitro minimum inhibitory concentration against Staphylococcus aureus IID 803; format: functional
Pseudomonas aeruginosa [2] = assay: In vitro minimum inhibitory concentration against Pseudomonas aeruginosa IFO 3445; format: functional
Escherichia coli [3] = assay: In vitro minimum inhibitory concentration against Escherichia coli NIHJ JC-2; format: functional
Staphylococcus aureus [4] = assay: In vitro minimum inhibitory concentration against Staphylococcus aureus FDA 209P JC-1; format: functional
[5] = system: Staphylococcus epidermidis; assay: In vitro minimum inhibitory concentration against Staphylococcus epidermidis IAM 1296; format: functional
Escherichia coli [6] = assay: In vitro minimum inhibitory concentration against Escherichia coli KC-14; format: functional
Salmonella typhimurium = assay: In vitro minimum inhibitory concentration against Salmonella Typhimurium IID 971; format: functional, Salmonella enterica subsp. enterica serovar Typhimurium; conditions: Salmonella enterica
Pseudomonas aeruginosa [7] = assay: In vitro minimum inhibitory concentration against Pseudomonas aeruginosa E-2; format: functional
Klebsiella pneumoniae = assay: In vitro minimum inhibitory concentration against Klebsiella pneumoniae B54; format: functional
Enterococcus faecalis = assay: In vitro minimum inhibitory concentration against E. Faecalis IID682; format: functional
Escherichia coli [8] = assay: In vitro minimum inhibitory concentration against Escherichia coli KL-16; format: functional
Escherichia coli [9] = assay: Inhibitory effect on DNA gyrase supercoiling activity against Escherichia coli KL-16; format: functional
Pseudomonas aeruginosa [10] = assay: Oral antibacterial activity against Pseudomonas aeruginosa E-2 in mice; format: functional
Staphylococcus aureus [11] = assay: Oral antibacterial activity against Staphylococcus aureus IID 803 in mice (95% confidence limits); format: functional
Escherichia coli [12] = assay: Oral antibacterial activity against Escherichia coli KC-14 in mice; format: functional

| MIC (Staphylococcus aureus [1]) [mg/L] | MIC (Pseudomonas aeruginosa [2]) [mg/L] | MIC (Escherichia coli [3]) [mg/L] | MIC (Staphylococcus aureus [4]) [mg/L] | MIC [5] [mg/L] | MIC (Escherichia coli [6]) [mg/L] | MIC (Salmonella typhimurium) [mg/L] | MIC (Pseudomonas aeruginosa [7]) [mg/L] | MIC (Klebsiella pneumoniae) [mg/L] | MIC (Enterococcus faecalis) [mg/L] | MIC (Escherichia coli [8]) [mg/L] | IC50 (Escherichia coli [9]) [mg/L] | SMILES | ED50 (Pseudomonas aeruginosa [10]) [mg/kg] | ED50 (Staphylococcus aureus [11]) [mg/kg] | ED50 (Escherichia coli [12]) [mg/kg] |
| --- | --- | --- | --- | --- | --- | --- | --- | --- | --- | --- | --- | --- | --- | --- | --- |
| 0.39 | 1.56 | 0.78 | 0.39 | 0.78 | 0.39 | 0.78 | 6.25 | 12.5 | 3.13 | 0.78 | 0.45 | C=CCN1Cc2csc3c(C(=O)O)c(=O)c4cc(F)c(N5CCN(C)CC5)c1c4n23.Cl | – | – | – |
| 0.2 (≈ 0.467 µM) | 1.56 (≈ 3.64 µM) | 0.2 (≈ 0.467 µM) | 0.2 (≈ 0.467 µM) | 0.39 (≈ 0.91 µM) | 0.1 (≈ 0.233 µM) | 0.39 (≈ 0.91 µM) | 3.13 (≈ 7.3 µM) | 0.2 (≈ 0.467 µM) | 0.78 (≈ 1.82 µM) | 0.2 (≈ 0.467 µM) | 0.34 (≈ 0.793 µM) | CN1CCN(c2c(F)cc3c(=O)c(C(=O)O)c4scc5n4c3c2N(C2CC2)C5)CC1 | – | – | – |
| 3.13 | 100 | 25 | 6.25 | 12.5 | 12.5 | 50 | 100 | 50 | 25 | 25 | > 10 | CN1CCN(c2c(F)cc3c(=O)c(C(=O)O)c4scc5n4c3c2N(Cc2ccccc2)C5)CC1.Cl | – | – | – |
| 0.1 (≈ 0.257 µM) | 0.78 (≈ 2 µM) | 0.1 (≈ 0.257 µM) | 0.1 (≈ 0.257 µM) | 0.2 (≈ 0.514 µM) | 0.1 (≈ 0.257 µM) | 0.05 (≈ 0.128 µM) | 0.78 (≈ 2 µM) | 0.1 (≈ 0.257 µM) | 0.39 (≈ 1 µM) | 0.05 (≈ 0.128 µM) | 0.14 (≈ 0.36 µM) | CN1CCN(c2c(F)cc3c(=O)c(C(=O)O)c4scc5n4c3c2OC5)CC1 | 11.7 | 12.3 | 1.4 |
| 0.78 | 100 | 3.13 | 1.56 | 1.56 | 3.13 | 3.13 | 100 | 3.13 | 25 | 3.13 | 1.76 | CN1CCN(c2c(F)cc3c(=O)c(C(=O)O)c4scc5n4c3c2N(c2ccccc2)C5)CC1.Cl | – | – | – |
| 0.2 (≈ 0.48 µM) | 3.13 (≈ 7.52 µM) | 0.39 (≈ 0.936 µM) | 0.2 (≈ 0.48 µM) | 0.2 (≈ 0.48 µM) | 0.2 (≈ 0.48 µM) | 0.2 (≈ 0.48 µM) | 3.13 (≈ 7.52 µM) | 0.2 (≈ 0.48 µM) | 0.78 (≈ 1.87 µM) | 0.2 (≈ 0.48 µM) | 0.25 (≈ 0.6 µM) | CCN1Cc2csc3c(C(=O)O)c(=O)c4cc(F)c(N5CCN(C)CC5)c1c4n23 | – | – | – |
| 0.2 (≈ 0.493 µM) | 3.13 (≈ 7.72 µM) | 0.2 (≈ 0.493 µM) | 0.2 (≈ 0.493 µM) | 0.39 (≈ 0.962 µM) | 0.2 (≈ 0.493 µM) | 0.1 (≈ 0.247 µM) | 3.13 (≈ 7.72 µM) | 0.2 (≈ 0.493 µM) | 0.78 (≈ 1.92 µM) | 0.2 (≈ 0.493 µM) | 0.24 (≈ 0.592 µM) | CN1CCN(c2c(F)cc3c(=O)c(C(=O)O)c4scc5n4c3c2SC5)CC1 | – | – | – |
| 6.25 | 100 | 12.5 | 6.25 | 12.5 | 12.5 | 12.5 | 100 | 25 | 50 | 12.5 | > 10 | CN1CCN(c2c(F)cc3c(=O)c(C(=O)O)c4scc5n4c3c2C(=O)C5)CC1.Cl | – | – | – |
| 0.05 (≈ 0.124 µM) | 0.39 (≈ 0.969 µM) | 0.05 (≈ 0.124 µM) | 0.05 (≈ 0.124 µM) | 0.05 (≈ 0.124 µM) | 0.05 (≈ 0.124 µM) | 0.05 (≈ 0.124 µM) | 0.78 (≈ 1.94 µM) | 0.05 (≈ 0.124 µM) | 0.1 (≈ 0.248 µM) | 0.05 (≈ 0.124 µM) | 0.16 (≈ 0.398 µM) | CN1CCN(c2c(F)cc3c(=O)c(C(=O)O)c4scc5n4c3c2N(C)C5)CC1 | 10.2 | 2.8 | 0.9 |

| SMILES | MIC (Staphylococcus aureus [1]) [mg/L] | MIC (Pseudomonas aeruginosa [2]) [mg/L] | MIC (Escherichia coli [3]) [mg/L] | MIC (Staphylococcus aureus [4]) [mg/L] | MIC [5] [mg/L] | MIC (Escherichia coli [6]) [mg/L] | MIC (Salmonella typhimurium) [mg/L] | MIC (Pseudomonas aeruginosa [7]) [mg/L] | MIC (Klebsiella pneumoniae) [mg/L] | MIC (Enterococcus faecalis) [mg/L] | MIC (Escherichia coli [8]) [mg/L] | IC50 (Escherichia coli [9]) [mg/L] | ED50 (Pseudomonas aeruginosa [10]) [mg/kg] | ED50 (Staphylococcus aureus [11]) [mg/kg] | ED50 (Escherichia coli [12]) [mg/kg] |
| --- | --- | --- | --- | --- | --- | --- | --- | --- | --- | --- | --- | --- | --- | --- | --- |
| CC1COc2c(N3CCN(C)CC3)c(F)cc3c(=O)c(C(=O)O)cn1c23 (centres undefined) [OFLOXACIN] | 0.39 (≈ 1.08 µM) | 1.56 (≈ 4.32 µM) | 0.1 (≈ 0.277 µM) | 0.39 (≈ 1.08 µM) | 0.78 (≈ 2.16 µM) | 0.1 (≈ 0.277 µM) | 0.05 (≈ 0.138 µM) | 1.56 (≈ 4.32 µM) | 0.1 (≈ 0.277 µM) | 1.56 (≈ 4.32 µM) | – | – | – | – | – |
